Test results from patent US11970473B2, “Nootkatone derivatives and methods of using the same” (Arkansas State University—Jonesboro, priority 2021, dated 2024).
Values after ≈ are worked out from the molar mass of the structure shown.

Tests used:
[1] = tested on: SK-MEL-2; experiment: NCI-60 cancer screen; format: cell-based, human; conditions: SK-MEL-2, Melanoma; 10 μM
[2] = tested on: NCI-H226; experiment: NCI-60 cancer screen; format: cell-based, human; conditions: NCI-H226, Non-Small Cell Lung Cancer; 10 μM
[3] = tested on: HOP-92; experiment: NCI-60 cancer screen; format: cell-based, human; conditions: HOP-92, Non-Small Cell Lung Cancer; 10 μM
[4] = tested on: KM12; experiment: NCI-60 cancer screen; format: cell-based, human; conditions: KM12, Colon Cancer; 10 μM
[5] = tested on: PC-3; experiment: NCI-60 cancer screen; format: cell-based, human; conditions: PC-3, Prostate Cancer; 10 μM
[6] = tested on: OVCAR-3; experiment: NCI-60 cancer screen; format: cell-based, human; conditions: OVCAR-3, Ovarian Cancer; 10 μM
[7] = tested on: SF-539; experiment: NCI-60 cancer screen; format: cell-based, human; conditions: SF-539, CNS Cancer; 10 μM
[8] = tested on: IGROV1; experiment: NCI-60 cancer screen; format: cell-based, human; conditions: IGROV1, Ovarian Cancer; 10 μM
[9] = tested on: SF-268; experiment: NCI-60 cancer screen; format: cell-based, human; conditions: SF-268, CNS Cancer; 10 μM
[10] = tested on: COLO 205; experiment: NCI-60 cancer screen; format: cell-based, human; conditions: COLO 205, Colon Cancer; 10 μM
[11] = tested on: 786-0; experiment: NCI-60 cancer screen; format: cell-based, human; conditions: 786-0, Renal Cancer; 10 μM
[12] = tested on: TK-10; experiment: NCI-60 cancer screen; format: cell-based, human; conditions: TK-10, Renal Cancer; 10 μM
[13] = tested on: MDA-MB-468; experiment: NCI-60 cancer screen; format: cell-based, human; conditions: MDA-MB-468, Breast Cancer; 10 μM
[14] = tested on: ACHN; experiment: NCI-60 cancer screen; format: cell-based, human; conditions: Renal Cancer, 10 μM
[15] = tested on: MALME-3M; experiment: NCI-60 cancer screen; format: cell-based, human; conditions: Melanoma, 10 μM
[16] = tested on: S. epidermidis 700296 (Se); experiment: Minimal inhibitory concentration (MIC) assay; format: cell-based; conditions: Staphylococcus epidermidis, S. epidermidis 700296; read-out: Antimicrobial activity (MIC) Se
Experimental: (§1) Minimal inhibitory concentration (MIC) assay The standard microdilution method recommended by the Clinical and Laboratory Standards Institute (CLSI) was used to determine the MIC of the antibiotics. The starting concentration of compounds was 50 μg/ml and 2-fold dilution was done down the 96 honeycomb well plate column. The MIC assay was conducted in triplicates.

[17] = tested on: S. aureus ATCC 33592 (Sa92); experiment: Minimal inhibitory concentration (MIC) assay; format: cell-based; conditions: Staphylococcus aureus, ATCC33592; S. aureus ATCC 33592, antibiotic-resistant strain; read-out: Antimicrobial activity (MIC) Sa92
Experimental: as §1

[18] = tested on: S. aureus BAA-2312 (Sa12); experiment: Minimal inhibitory concentration (MIC) assay; format: cell-based; conditions: Staphylococcus aureus, BAA2312; S. aureus BAA-2312, antibiotic-resistant strain; read-out: Antimicrobial activity (MIC) Sa12
Experimental: as §1

[19] = tested on: S. aureus ATCC 700699 (Sa99); experiment: Minimal inhibitory concentration (MIC) assay; format: cell-based; conditions: Staphylococcus aureus, ATCC700699; S. aureus ATCC 700699, antibiotic-resistant strain; read-out: Antimicrobial activity (MIC) Sa99
Experimental: as §1

[20] = tested on: B. subtilis ATCC 6623 (Bs); experiment: Minimal inhibitory concentration (MIC) assay; format: cell-based; conditions: Bacillus subtilis, ATCC6623; B. subtilis ATCC 6623; read-out: Antimicrobial activity (MIC) Bs
Experimental: as §1

[21] = tested on: Enterococcus faecium ATCC 700221 (Em21); experiment: Minimal inhibitory concentration (MIC) assay; format: cell-based
Experimental: as §1

[22] = tested on: S. aureus ATCC 25923 (Sa23); experiment: Minimal inhibitory concentration (MIC) assay; format: cell-based; conditions: Staphylococcus aureus, ATCC25923; S. aureus ATCC 25923, antibiotic susceptible strain; read-out: Antimicrobial activity (MIC) Sa23
Experimental: as §1

[23] = tested on: S. aureus ATCC 33591 (Sa91); experiment: Minimal inhibitory concentration (MIC) assay; format: cell-based; conditions: Staphylococcus aureus, ATCC33591; S. aureus ATCC 33591, antibiotic-resistant strain; read-out: Antimicrobial activity (MIC) Sa91
Experimental: as §1

[24] = tested on: Enterococcus faecalis ATCC 29212 (Es12); experiment: Minimal inhibitory concentration (MIC) assay; format: cell-based; conditions: ATCC29212; Enterococcus faecalis ATCC 29212; read-out: Antimicrobial activity (MIC) Es12
Experimental: as §1

[25] = tested on: HS 578T; experiment: NCI-60 cancer screen; format: cell-based, human; conditions: Breast Cancer, 10 μM
[26] = tested on: HCT-116; experiment: NCI-60 cancer screen; format: cell-based, human; conditions: HCT-116, Colon Cancer; 10 μM
[27] = tested on: SR; experiment: NCI-60 cancer screen; format: cell-based, human; conditions: Leukemia, 10 μM
[28] = tested on: MDA-MB-231/ATCC; experiment: NCI-60 cancer screen; format: cell-based, human; conditions: Breast Cancer, 10 μM
[29] = tested on: NCI/ADR-RES; experiment: NCI-60 cancer screen; format: cell-based, human; conditions: Ovarian Cancer, 10 μM
[30] = tested on: EKVX; experiment: NCI-60 cancer screen; format: cell-based, human; conditions: Non-Small Cell Lung Cancer, 10 μM

Q: With `C=C(C)[C@@H]1CC=C2c3sc(-c4ccc(O)cc4)nc3C[C@@H](C)[C@]2(C)C1` [Compound 15, 4-[(5R,5aS,7R)-7-isopropenyl-5,5a-dimethyl-5,6,7,8-tetrahydro-4H-benzo[g][1,3]benzothiazol-2-yl]phenol] as the compound, how does the “Growth Percent” value [1] read?
A: 104.08%

Q: What about the “Growth Percent” value [2] of the same compound?
A: 94.10%

Q: What about the “Growth Percent” value [3] of the same compound?
A: 96.54%

Q: What about the “Growth Percent” value [4] of the same compound?
A: 103.49%

Q: What about the “Growth Percent” value [5] of the same compound?
A: 94.38%

Q: What about the “Growth Percent” value [6] of the same compound?
A: 102.89%

Q: What about the “Growth Percent” value [7] of the same compound?
A: 101.06%

Q: And the “Growth Percent” value [8]?
A: 102.22%

Q: What about the “Growth Percent” value [9] of the same compound?
A: 100.98%

Q: And the “Growth Percent” value [10]?
A: 118.41%

Q: And the “Growth Percent” value [11]?
A: 101.31%

Q: And the “Growth Percent” value [12]?
A: 118.28%

Q: What about the “Growth Percent” value [13] of the same compound?
A: 102.12%

Q: What about the “Growth Percent” value [14] of the same compound?
A: 100.09%

Q: And the “Growth Percent” value [15]?
A: 99.38%

Q: What about the MIC [16] of the same compound?
A: 6.25 µg/mL (≈ 17.8 µM)

Q: What about the MIC [17] of the same compound?
A: 6.25 µg/mL (≈ 17.8 µM)

Q: And the MIC [18]?
A: 12.5 µg/mL (≈ 35.6 µM)

Q: What about the MIC [19] of the same compound?
A: 12.5 µg/mL (≈ 35.6 µM)

Q: What about the MIC [20] of the same compound?
A: 6.25 µg/mL (≈ 17.8 µM)

Q: What about the “Antimicrobial activity (MIC) Em21” value ([21]; Enterococcus faecium ATCC 700221) of the same compound?
A: 3.12 µg/mL

Q: And the MIC ([21]; Enterococcus faecium, ATCC700221, Enterococcus faecium ATCC 700221, read-out: Antimicrobial activity (MIC) Em21)?
A: 3.12 µg/mL (≈ 8.89 µM)

Q: What about the MIC [22] of the same compound?
A: > 100 µg/mL

Q: What about the MIC [23] of the same compound?
A: 6.2 µg/mL (≈ 17.6 µM)

Q: What about the MIC [24] of the same compound?
A: 12.5 µg/mL (≈ 35.6 µM)

Q: And the “Growth Percent” value [25]?
A: 100.94%

Q: What about the “Growth Percent” value [26] of the same compound?
A: 114.01%

Q: And the “Growth Percent” value [27]?
A: 113.66%

Q: What about the “Growth Percent” value [28] of the same compound?
A: 101.25%

Q: And the “Growth Percent” value [29]?
A: 105.66%

Q: What about the “Growth Percent” value [30] of the same compound?
A: 101.37%
